Active and inactive are the calls of the source. Rule as the data show it, for most assays here: actives have a measured Kd and inactives only a lower limit. Some results are limits rather than exact numbers.

For assay [1], the target named is Mitogen-activated protein kinase kinase kinase kinase 4 (Homo sapiens, UniProt O95819).
The target in assay [2] is T1, Mitogen-activated protein kinase kinase kinase 5 (Homo sapiens, UniProt Q99683).
T1 sequence (Q99683 whole entry): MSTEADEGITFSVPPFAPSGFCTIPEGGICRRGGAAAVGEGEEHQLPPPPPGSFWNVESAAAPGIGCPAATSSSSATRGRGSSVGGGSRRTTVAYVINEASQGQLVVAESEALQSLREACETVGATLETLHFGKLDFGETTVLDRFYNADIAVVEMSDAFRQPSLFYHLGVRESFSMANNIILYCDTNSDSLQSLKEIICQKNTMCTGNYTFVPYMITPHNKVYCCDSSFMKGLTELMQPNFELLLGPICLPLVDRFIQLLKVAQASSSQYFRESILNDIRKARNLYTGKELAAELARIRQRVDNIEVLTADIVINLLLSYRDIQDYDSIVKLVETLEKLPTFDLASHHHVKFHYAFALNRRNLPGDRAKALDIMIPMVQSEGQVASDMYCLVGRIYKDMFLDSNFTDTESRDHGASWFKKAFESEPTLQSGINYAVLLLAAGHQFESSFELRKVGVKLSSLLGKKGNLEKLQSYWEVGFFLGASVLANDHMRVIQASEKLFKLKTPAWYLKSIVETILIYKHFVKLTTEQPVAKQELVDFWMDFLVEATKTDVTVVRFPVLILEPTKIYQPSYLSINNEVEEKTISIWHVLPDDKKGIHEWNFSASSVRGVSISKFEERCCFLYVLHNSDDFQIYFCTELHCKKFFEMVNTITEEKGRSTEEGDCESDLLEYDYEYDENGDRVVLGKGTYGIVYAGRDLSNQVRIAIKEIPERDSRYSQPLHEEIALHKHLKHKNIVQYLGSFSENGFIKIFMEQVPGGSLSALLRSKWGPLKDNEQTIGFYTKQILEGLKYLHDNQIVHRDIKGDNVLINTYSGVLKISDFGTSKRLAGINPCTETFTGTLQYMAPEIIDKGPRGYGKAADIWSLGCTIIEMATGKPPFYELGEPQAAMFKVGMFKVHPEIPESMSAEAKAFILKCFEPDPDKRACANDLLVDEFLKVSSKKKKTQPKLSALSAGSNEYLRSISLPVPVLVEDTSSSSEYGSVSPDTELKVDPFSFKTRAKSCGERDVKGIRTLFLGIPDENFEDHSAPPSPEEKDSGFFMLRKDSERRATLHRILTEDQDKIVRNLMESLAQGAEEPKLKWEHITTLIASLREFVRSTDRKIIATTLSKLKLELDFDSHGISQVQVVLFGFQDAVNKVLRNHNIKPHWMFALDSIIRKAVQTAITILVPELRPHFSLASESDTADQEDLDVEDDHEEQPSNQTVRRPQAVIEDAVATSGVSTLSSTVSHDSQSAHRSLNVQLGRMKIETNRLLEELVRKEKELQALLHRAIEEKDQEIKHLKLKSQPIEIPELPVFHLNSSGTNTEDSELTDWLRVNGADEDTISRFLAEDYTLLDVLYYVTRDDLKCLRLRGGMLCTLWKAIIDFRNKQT

The target in assay [3] is Atypical kinase COQ8A, mitochondrial (Homo sapiens, UniProt Q8NI60).
Chain of Atypical kinase COQ8A, mitochondrial (Q8NI60 whole entry): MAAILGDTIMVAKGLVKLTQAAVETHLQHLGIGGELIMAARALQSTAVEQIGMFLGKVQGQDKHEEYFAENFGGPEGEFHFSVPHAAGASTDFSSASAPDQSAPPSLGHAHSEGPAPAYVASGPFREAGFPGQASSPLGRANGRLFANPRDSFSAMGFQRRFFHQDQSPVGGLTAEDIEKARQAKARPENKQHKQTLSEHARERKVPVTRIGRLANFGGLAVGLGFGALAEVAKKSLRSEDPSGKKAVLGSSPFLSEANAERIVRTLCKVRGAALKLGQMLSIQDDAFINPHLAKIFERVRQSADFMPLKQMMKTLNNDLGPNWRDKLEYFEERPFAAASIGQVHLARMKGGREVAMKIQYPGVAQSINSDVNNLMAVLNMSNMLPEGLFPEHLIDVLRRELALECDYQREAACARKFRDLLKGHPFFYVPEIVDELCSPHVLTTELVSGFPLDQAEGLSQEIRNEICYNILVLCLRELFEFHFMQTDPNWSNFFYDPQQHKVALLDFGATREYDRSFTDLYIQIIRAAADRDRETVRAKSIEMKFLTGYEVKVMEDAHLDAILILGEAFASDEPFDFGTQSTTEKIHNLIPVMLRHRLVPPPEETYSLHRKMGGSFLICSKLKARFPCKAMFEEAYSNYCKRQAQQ
For assay [4], the target named is Fibroblast growth factor receptor 1 (Homo sapiens, UniProt P11362).
Chain of Fibroblast growth factor receptor 1 (P11362 whole entry): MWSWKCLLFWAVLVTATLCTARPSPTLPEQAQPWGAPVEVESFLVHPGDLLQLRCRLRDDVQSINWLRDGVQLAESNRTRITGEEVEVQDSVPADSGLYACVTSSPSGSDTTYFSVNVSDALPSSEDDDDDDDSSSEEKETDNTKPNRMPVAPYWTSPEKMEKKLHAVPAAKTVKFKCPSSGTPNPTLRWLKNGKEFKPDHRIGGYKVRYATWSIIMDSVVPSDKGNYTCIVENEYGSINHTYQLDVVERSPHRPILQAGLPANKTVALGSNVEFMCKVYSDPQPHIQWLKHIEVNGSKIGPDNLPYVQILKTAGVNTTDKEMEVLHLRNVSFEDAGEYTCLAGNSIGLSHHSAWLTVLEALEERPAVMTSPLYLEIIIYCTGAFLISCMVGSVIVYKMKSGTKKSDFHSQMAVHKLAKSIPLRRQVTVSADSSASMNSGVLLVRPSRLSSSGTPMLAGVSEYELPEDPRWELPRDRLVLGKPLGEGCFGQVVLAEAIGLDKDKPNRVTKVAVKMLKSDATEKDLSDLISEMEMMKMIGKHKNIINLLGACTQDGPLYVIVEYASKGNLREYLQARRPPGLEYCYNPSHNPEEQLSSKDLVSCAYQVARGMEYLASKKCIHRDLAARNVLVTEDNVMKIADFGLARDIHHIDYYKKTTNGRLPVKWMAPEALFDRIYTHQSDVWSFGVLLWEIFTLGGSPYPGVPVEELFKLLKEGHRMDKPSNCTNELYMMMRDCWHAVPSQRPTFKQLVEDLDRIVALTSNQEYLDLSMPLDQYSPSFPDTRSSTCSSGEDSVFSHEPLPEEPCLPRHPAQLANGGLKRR
Assay [5] concerns the target T2, Mitogen-activated protein kinase 15 (Homo sapiens, UniProt Q8TD08).
T2 sequence (Q8TD08 whole entry): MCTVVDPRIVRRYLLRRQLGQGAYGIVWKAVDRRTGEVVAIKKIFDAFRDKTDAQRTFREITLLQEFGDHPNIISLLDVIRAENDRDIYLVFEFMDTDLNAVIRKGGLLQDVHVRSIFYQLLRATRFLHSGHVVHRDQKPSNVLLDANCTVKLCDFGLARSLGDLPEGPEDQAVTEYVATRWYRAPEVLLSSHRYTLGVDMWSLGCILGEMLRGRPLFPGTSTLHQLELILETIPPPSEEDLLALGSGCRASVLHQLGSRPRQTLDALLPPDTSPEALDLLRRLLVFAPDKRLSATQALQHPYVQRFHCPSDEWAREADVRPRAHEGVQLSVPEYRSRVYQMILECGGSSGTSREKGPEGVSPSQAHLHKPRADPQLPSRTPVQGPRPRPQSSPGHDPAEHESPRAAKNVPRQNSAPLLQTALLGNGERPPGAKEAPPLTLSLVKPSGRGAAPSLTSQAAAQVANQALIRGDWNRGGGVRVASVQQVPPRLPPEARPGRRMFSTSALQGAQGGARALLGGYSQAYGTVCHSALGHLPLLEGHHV

Assay [6] concerns the target T3, Discoidin domain-containing receptor 2 (Homo sapiens, UniProt Q16832).
T3 sequence (Q16832 whole entry): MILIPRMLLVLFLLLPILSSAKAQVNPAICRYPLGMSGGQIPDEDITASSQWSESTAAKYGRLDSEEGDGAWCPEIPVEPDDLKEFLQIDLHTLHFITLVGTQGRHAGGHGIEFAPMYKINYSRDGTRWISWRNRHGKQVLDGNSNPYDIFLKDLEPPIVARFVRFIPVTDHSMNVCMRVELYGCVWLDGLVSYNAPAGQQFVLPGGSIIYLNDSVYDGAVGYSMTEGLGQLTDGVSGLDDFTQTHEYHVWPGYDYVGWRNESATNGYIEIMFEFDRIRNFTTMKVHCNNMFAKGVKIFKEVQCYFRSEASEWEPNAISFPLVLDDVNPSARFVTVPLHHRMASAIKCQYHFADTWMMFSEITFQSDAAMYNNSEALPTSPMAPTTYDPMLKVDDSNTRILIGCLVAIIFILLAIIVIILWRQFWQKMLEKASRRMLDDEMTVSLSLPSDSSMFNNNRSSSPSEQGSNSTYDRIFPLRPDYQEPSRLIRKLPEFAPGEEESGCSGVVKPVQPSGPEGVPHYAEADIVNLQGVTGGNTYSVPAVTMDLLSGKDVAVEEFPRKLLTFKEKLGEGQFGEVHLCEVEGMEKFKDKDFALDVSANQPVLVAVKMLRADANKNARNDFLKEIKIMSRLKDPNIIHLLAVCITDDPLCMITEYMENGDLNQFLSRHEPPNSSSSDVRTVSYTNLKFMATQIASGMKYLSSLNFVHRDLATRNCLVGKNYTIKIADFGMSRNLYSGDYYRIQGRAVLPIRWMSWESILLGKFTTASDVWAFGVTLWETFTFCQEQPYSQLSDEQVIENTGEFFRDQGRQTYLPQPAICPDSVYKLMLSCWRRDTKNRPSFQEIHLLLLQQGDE

Assay [7] concerns the target AP2-associated protein kinase 1 (Homo sapiens, UniProt Q2M2I8).
Assay [8] concerns the target Tyrosine-protein kinase HCK (Homo sapiens, UniProt P08631).
Also: in the data inactive means no Kd found up to 30 µM.

Chain of Mitogen-activated protein kinase kinase kinase kinase 4 (O95819 whole entry): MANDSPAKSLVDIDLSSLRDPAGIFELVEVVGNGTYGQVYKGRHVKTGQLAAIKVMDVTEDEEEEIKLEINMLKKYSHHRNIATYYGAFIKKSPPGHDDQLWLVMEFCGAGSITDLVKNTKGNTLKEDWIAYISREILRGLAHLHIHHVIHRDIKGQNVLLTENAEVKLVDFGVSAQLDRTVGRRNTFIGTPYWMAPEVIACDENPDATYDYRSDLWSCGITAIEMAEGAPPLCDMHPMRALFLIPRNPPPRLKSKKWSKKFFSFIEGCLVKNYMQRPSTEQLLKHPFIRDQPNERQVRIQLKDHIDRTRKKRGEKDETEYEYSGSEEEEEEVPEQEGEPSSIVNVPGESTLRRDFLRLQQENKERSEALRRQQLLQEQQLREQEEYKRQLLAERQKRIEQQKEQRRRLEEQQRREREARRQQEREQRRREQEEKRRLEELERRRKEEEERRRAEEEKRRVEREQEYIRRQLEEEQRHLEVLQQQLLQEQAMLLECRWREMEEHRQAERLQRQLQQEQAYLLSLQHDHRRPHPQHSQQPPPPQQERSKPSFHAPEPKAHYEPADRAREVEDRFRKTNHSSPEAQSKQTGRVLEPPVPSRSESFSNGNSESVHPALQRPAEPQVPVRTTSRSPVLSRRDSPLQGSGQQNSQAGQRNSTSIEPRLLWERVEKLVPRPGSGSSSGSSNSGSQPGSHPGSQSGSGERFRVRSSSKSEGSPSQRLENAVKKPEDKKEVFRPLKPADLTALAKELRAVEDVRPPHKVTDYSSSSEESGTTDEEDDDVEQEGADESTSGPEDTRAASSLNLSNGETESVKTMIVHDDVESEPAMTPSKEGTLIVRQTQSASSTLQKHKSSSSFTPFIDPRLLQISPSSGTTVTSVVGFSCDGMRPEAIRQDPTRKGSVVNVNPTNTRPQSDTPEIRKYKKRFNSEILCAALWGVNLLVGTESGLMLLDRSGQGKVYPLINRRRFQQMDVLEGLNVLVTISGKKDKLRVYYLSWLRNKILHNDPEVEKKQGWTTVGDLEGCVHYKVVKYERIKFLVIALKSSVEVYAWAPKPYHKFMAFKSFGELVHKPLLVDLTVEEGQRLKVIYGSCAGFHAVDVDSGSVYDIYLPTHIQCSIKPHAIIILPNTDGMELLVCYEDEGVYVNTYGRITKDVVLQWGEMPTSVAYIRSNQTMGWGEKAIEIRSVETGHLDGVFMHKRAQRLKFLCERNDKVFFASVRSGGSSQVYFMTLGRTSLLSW
Chain of Tyrosine-protein kinase HCK (P08631 whole entry): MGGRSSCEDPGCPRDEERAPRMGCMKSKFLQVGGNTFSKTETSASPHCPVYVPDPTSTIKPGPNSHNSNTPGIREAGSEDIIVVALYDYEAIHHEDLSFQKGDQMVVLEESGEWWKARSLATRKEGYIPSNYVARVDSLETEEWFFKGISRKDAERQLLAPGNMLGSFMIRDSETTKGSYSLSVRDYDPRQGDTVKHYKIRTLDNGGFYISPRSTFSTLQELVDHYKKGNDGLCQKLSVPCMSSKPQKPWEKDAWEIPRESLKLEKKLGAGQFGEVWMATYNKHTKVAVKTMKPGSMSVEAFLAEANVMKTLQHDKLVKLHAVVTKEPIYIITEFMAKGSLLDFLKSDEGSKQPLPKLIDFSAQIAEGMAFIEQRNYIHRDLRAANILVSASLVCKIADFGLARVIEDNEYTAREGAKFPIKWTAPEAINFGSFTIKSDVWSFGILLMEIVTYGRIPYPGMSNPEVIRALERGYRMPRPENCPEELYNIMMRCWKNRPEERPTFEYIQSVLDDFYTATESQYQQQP
Chain of AP2-associated protein kinase 1 (Q2M2I8 whole entry): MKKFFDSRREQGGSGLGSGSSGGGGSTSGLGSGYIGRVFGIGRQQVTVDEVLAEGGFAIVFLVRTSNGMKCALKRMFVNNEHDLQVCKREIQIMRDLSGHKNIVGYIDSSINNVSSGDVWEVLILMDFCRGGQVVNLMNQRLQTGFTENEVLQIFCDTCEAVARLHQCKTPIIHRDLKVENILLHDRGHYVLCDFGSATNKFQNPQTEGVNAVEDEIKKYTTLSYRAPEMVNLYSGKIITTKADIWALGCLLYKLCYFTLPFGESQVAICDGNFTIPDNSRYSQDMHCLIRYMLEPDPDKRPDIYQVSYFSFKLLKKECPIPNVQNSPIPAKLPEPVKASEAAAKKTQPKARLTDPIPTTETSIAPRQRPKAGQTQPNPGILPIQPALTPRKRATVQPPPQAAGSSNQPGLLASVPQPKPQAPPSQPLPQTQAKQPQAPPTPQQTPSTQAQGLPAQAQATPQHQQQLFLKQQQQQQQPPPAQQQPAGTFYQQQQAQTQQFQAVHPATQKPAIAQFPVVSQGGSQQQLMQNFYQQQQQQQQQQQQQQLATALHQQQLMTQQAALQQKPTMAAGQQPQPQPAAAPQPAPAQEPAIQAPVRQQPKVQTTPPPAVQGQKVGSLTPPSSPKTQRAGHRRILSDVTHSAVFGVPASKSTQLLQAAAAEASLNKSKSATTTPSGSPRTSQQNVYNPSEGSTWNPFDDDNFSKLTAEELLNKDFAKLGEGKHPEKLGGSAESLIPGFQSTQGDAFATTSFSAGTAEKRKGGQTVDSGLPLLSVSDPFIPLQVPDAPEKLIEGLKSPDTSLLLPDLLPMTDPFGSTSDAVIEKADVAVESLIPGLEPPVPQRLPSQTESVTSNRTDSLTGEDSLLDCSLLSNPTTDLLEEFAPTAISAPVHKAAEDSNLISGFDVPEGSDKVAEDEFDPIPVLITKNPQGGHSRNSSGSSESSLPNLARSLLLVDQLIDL

Regarding `CO[C@H]1C[C@@H]2CC[C@@H](C)[C@@](O)(O2)C(=O)C(=O)N2CCCC[C@H]2C(=O)O[C@H]([C@H](C)C[C@@H]2CC[C@@H](OCCO)[C@H](OC)C2)CC(=O)[C@H](C)/C=C(\C)[C@@H](O)[C@@H](OC)C(=O)[C@H](C)C[C@H](C)/C=C/C=C/C=C/1C` [EVEROLIMUS], the Kd in assay [1], in assay [2], in assay [3], in assay [4], in assay [5] and in assay [6] was > 30 µM (inactive) each time. In addition, the Kd in assay [7] and in assay [8] was > 30 µM (inactive) in each case.

As to `CCCS(=O)(=O)Nc1ccc(F)c(C(=O)c2c[nH]c3ncc(-c4ccc(Cl)cc4)cc23)c1F` [VEMURAFENIB], the Kd in assay [1], in assay [2], in assay [3], in assay [4], in assay [5] and in assay [6] was > 30 µM (inactive) in each case. The Kd in assay [7] and in assay [8] was > 30 µM (inactive) in each case.

For `O=C(Nc1ccc(-c2ccnc(Nc3ccc(N4CCOCC4)cc3)n2)cc1)C1CCCN1` (stereo not drawn) [XL-019], the Kd in assay [1], in assay [2], in assay [3], in assay [4], in assay [5] and in assay [6] was > 30 µM (inactive) each time. Moreover, the figures for the Kd in assay [7] and in assay [8] were 0.006 µM (active) and > 30 µM (inactive), respectively.

With `Cn1ncc(Cl)c1-c1cc(C(=O)N[C@H](CN)Cc2cccc(F)c2)sc1Cl` [AFURESERTIB], the Kd in assay [1], in assay [2], in assay [3], in assay [4], in assay [5] and in assay [6] was > 30 µM (inactive) each time. Besides, the Kd in assay [7] and in assay [8] was > 30 µM (inactive) in each case.

`CNC(=O)CN1CCC(Oc2cc3c(Nc4cccc(Cl)c4F)ncnc3cc2OC)CC1` [SAPITINIB]: the Kd in assay [1], in assay [2], in assay [3], in assay [4], in assay [5] and in assay [6] was > 30 µM (inactive) in each case. Further, the Kd in assay [7] and in assay [8] was > 30 µM (inactive) in each case.

For `CC(=O)Nc1cccc(-n2c(=O)n(C3CC3)c(=O)c3c(Nc4ccc(I)cc4F)n(C)c(=O)c(C)c32)c1` [TRAMETINIB], the Kd in assay [1], in assay [2], in assay [3], in assay [4], in assay [5] and in assay [6] was > 30 µM (inactive) each time. For the same compound, the Kd in assay [7] and in assay [8] was > 30 µM (inactive) in each case.

In the case of `COC(=O)N[C@@H](C)CNc1nccc(-c2cn(C(C)C)nc2-c2cc(Cl)cc(NS(C)(=O)=O)c2F)n1` [ENCORAFENIB], the Kd in assay [1], in assay [2], in assay [3], in assay [4], in assay [5] and in assay [6] was > 30 µM (inactive) each time. Also, the Kd in assay [7] and in assay [8] was > 30 µM (inactive) throughout.

Consider `CNC(=O)c1ccc(-c2cnc3ncc(Cc4ccc5ncccc5c4)n3n2)cc1F` [CAPMATINIB], for which the Kd in assay [1], in assay [2], in assay [3], in assay [4], in assay [5] and in assay [6] was > 30 µM (inactive) throughout. In addition, the Kd in assay [7] and in assay [8] was > 30 µM (inactive) in each case.

`COC(=O)[C@@]1(O)C[C@H]2O[C@]1(C)n1c3ccccc3c3c4c(c5c6ccccc6n2c5c31)C(=O)NC4` [K-252A]: the Kd in assay [1] is 0.019 µM (active); in assay [2] it was 0.182 µM (active); in assay [3] it was > 30 µM (inactive); in assay [4], > 30 µM (inactive); in assay [5], 0.167 µM (active); in assay [6] it was > 30 µM (inactive). Moreover, the Kd was 0.005 µM (active) in assay [7] and > 30 µM (inactive) in assay [8].

Take `CCS(=O)(=O)N1CC(CC#N)(n2cc(-c3ncnc4[nH]ccc34)cn2)C1` [BARICITINIB]: the Kd in assay [1], in assay [2], in assay [3], in assay [4], in assay [5] and in assay [6] was > 30 µM (inactive) each time. Further, the equilibrium dissociation constant (Kd) in assay [7] was 0.046 µM (active); in assay [8], > 30 µM (inactive).

In the case of `CNS(=O)(=O)Nc1nccc(Cc2c(C)c3ccc(Oc4ncccn4)cc3oc2=O)c1F` [AVUTOMETINIB], the Kd in assay [1], in assay [2], in assay [3], in assay [4], in assay [5] and in assay [6] was > 30 µM (inactive) throughout. Also, the Kd in assay [7] and in assay [8] was > 30 µM (inactive) each time.
